Measured values as given in PubChem BioAssay AID248 (DTP/NCI, 2004).
Where “and” joins values, the source holds several entries; their conditions need not be identical. Equal values may be shown once. Inconclusive results and toxic doses are left out. No stated cut-off is given here; in the data, active means T/C of 150% or more; inactive means T/C below 125%.

Test system: L1210 leukemia ip in BDF1 mice, survival T/C
Test: NCI In Vivo Anticancer Drug Screen. Data for tumor model L1210 Leukemia (intraperitoneal) in B6D2F1 (BDF1) mice
Settings: endpoint: mean survival time, higher = longer survival
In short: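 Survival endpoint. Drug-treated group vs vehicle group, expressed as T divided by C. Tumor passaged by transplantation.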

[1] = dose: 100.0 mg/kg/injection, schedule: Q04DX002 (ip), vehicle: Klucel (hydroxypropylcellulose) (HPC)
[2] = dose: 50.0 mg/kg/injection, schedule: Q01DX009 (ip), vehicle: saline with Tween-80
[3] = dose: 100.0 mg/kg/injection, schedule: Q01DX009 (ip), vehicle: saline with Tween-80
[4] = dose: 200.0 mg/kg/injection, schedule: Q01DX009 (ip), vehicle: saline with Tween-80
[5] = dose: 100.0 mg/kg/injection, schedule: Q01DX009 (ip), vehicle: Klucel (hydroxypropylcellulose) (HPC)
[6] = dose: 200.0 mg/kg/injection, schedule: Q01DX009 (ip), vehicle: Klucel (hydroxypropylcellulose) (HPC)
[7] = dose: 100.0 mg/kg/injection, schedule: Q04DX003 (ip), vehicle: saline with Tween-80
[8] = dose: 200.0 mg/kg/injection, schedule: Q04DX003 (ip), vehicle: saline with Tween-80
[9] = dose: 400.0 mg/kg/injection, schedule: Q04DX003 (ip), vehicle: saline with Tween-80
[10] = dose: 100.0 mg/kg/injection, schedule: Q01DX001 (ip), vehicle: saline with Tween-80

Measured: T/C

Nc1c(F)c(F)c(N)c(F)c1F
inactive: dose: 100.0 mg/kg/injection, schedule: Q01DX001 (ip), vehicle: acetone 93 % of control | dose: 400.0 mg/kg/injection, schedule: Q01DX001 (ip), vehicle: acetone 89 % of control

NNC(=O)CNc1ccc(F)cc1Cl
inactive: [1] 101 % of control | dose: 200.0 mg/kg/injection, schedule: Q04DX002 (ip), vehicle: Klucel (hydroxypropylcellulose) (HPC) 105 % of control

CCN1C(=O)CN(CCN2CC(=O)N(c3ccccc3)C2=S)C1=S
inactive: [2] 94 % of control | [3] 102 % of control | [4] 90 % of control

Oc1cccc2cccnc12.[Al]
inactive: dose: 10.0 mg/kg/injection, schedule: Q01DX Z (ip), vehicle: carboxymethylcellulose (CMC) 93 % of control | dose: 20.0 mg/kg/injection, schedule: Q01DX Z (ip), vehicle: carboxymethylcellulose (CMC) 97 % of control | dose: 40.0 mg/kg/injection, schedule: Q01DX Z (ip), vehicle: carboxymethylcellulose (CMC) 93 % of control | dose: 50.0 mg/kg/injection, schedule: Q01DX009 (ip), vehicle: Klucel (hydroxypropylcellulose) (HPC) 94 % of control | dose: 50.0 mg/kg/injection, schedule: Q04DX003 (ip), vehicle: Klucel (hydroxypropylcellulose) (HPC) 101 % of control | [5] 100 % of control | dose: 100.0 mg/kg/injection, schedule: Q04DX003 (ip), vehicle: Klucel (hydroxypropylcellulose) (HPC) 102 % of control | [6] 96 % of control | dose: 200.0 mg/kg/injection, schedule: Q04DX003 (ip), vehicle: Klucel (hydroxypropylcellulose) (HPC) 101 % of control

CCOCC(C#N)C#N
inactive: dose: 6.25 mg/kg/injection, schedule: Q01DX009 (ip), vehicle: saline 94 % of control | dose: 6.25 mg/kg/injection, schedule: Q04DX003 (ip), vehicle: saline 96 % of control | dose: 12.5 mg/kg/injection, schedule: Q01DX009 (ip), vehicle: saline 92 % of control | dose: 12.5 mg/kg/injection, schedule: Q04DX003 (ip), vehicle: saline 106 % of control | dose: 25.0 mg/kg/injection, schedule: Q04DX003 (ip), vehicle: saline 99 % of control

Nc1ccc(NC(=O)c2ccc(C(=O)Nc3ccc(N)cc3)cc2)cc1
inactive: dose: 30.0 mg/kg/injection, schedule: Q01DX Z (ip), vehicle: methylcellulose (MC) 103 % of control | dose: 60.0 mg/kg/injection, schedule: Q01DX Z (ip), vehicle: methylcellulose (MC) 103 % of control | dose: 120.0 mg/kg/injection, schedule: Q01DX Z (ip), vehicle: methylcellulose (MC) 95 % of control | dose: 125.0 mg/kg/injection, schedule: Q01DX Z (ip), vehicle: water 96 % of control | dose: 250.0 mg/kg/injection, schedule: Q01DX Z (ip), vehicle: water 93 % of control | dose: 500.0 mg/kg/injection, schedule: Q01DX Z (ip), vehicle: water 98 % of control

Cc1ccc(S(=O)(=O)N(Cc2ccccc2[N+](=O)[O-])c2ccccc2)cc1
inactive: dose: 100.0 mg/kg/injection, schedule: Q01DX001 (ip), vehicle: carboxymethylcellulose (CMC) 103 % of control | dose: 200.0 mg/kg/injection, schedule: Q01DX001 (ip), vehicle: carboxymethylcellulose (CMC) 100 % of control | dose: 400.0 mg/kg/injection, schedule: Q01DX001 (ip), vehicle: carboxymethylcellulose (CMC) 103 % of control

CC1(C)N=C(N)N=C(N)N1c1cccc(CO)c1
inactive: dose: 100.0 mg/kg/injection, schedule: Q01DX001 (ip), vehicle: saline 96 % of control | dose: 200.0 mg/kg/injection, schedule: Q01DX001 (ip), vehicle: saline 105 % of control

C#CC(C)(C)OC(C)=O
inactive: dose: 100.0 mg/kg/injection, schedule: Q01DX001 (ip), vehicle: Klucel (hydroxypropylcellulose) (HPC) 99 % of control | [7] 92 % of control | dose: 200.0 mg/kg/injection, schedule: Q01DX001 (ip), vehicle: Klucel (hydroxypropylcellulose) (HPC) 99 % of control | [8] 103 % of control | dose: 400.0 mg/kg/injection, schedule: Q01DX001 (ip), vehicle: Klucel (hydroxypropylcellulose) (HPC) 104 % of control | [9] 92 % of control

O=c1ccsc2ccccc12
inactive: dose: 25.0 mg/kg/injection, schedule: Q01DX001 (ip), vehicle: saline with Tween-80 103 % of control | dose: 50.0 mg/kg/injection, schedule: Q01DX001 (ip), vehicle: saline with Tween-80 97 % of control | [10] 105 % of control and 92 % of control

O=C1NCC(Nc2ccccc2Cl)C(=O)N1 (configuration not stated)
inactive: dose: 100.0 mg/kg/injection, schedule: Q01DX Z (ip), vehicle: saline 96 % of control

O=C(O)CSc1nc2ccccc2s1
inactive: [3] 107 % of control

O=C(O)COc1ccccc1O
inactive: [3] 101 % of control | [4] 101 % of control

C1=CC(OC2C=CCC2)CC1 (configuration not stated)
inactive: dose: 25.0 mg/kg/injection, schedule: Q04DX002 (ip), vehicle: saline 89 % of control | dose: 50.0 mg/kg/injection, schedule: Q04DX002 (ip), vehicle: saline 118 % of control | dose: 100.0 mg/kg/injection, schedule: Q04DX002 (ip), vehicle: saline 99 % of control

CN(C)c1ccc2[nH]c(=O)c3ccccc3c2c1
inactive: dose: 75.0 mg/kg/injection, schedule: Q01DX001 (ip), vehicle: carboxymethylcellulose (CMC) 101 % of control

O=C(Nc1ncc([N+](=O)[O-])s1)c1ccc([N+](=O)[O-])cc1Cl
inactive: dose: 5.0 mg/kg/injection, schedule: Q01DX009 (ip), vehicle: Klucel (hydroxypropylcellulose) (HPC) 94 % of control | dose: 5.0 mg/kg/injection, schedule: Q04DX003 (ip), vehicle: Klucel (hydroxypropylcellulose) (HPC) 100 % of control | dose: 10.0 mg/kg/injection, schedule: Q01DX009 (ip), vehicle: Klucel (hydroxypropylcellulose) (HPC) 92 % of control | dose: 10.0 mg/kg/injection, schedule: Q04DX003 (ip), vehicle: Klucel (hydroxypropylcellulose) (HPC) 95 % of control | dose: 20.0 mg/kg/injection, schedule: Q01DX009 (ip), vehicle: Klucel (hydroxypropylcellulose) (HPC) 99 % of control | dose: 20.0 mg/kg/injection, schedule: Q04DX003 (ip), vehicle: Klucel (hydroxypropylcellulose) (HPC) 94 % of control

CCCCCCC(CC)NCCO (configuration not stated)
inactive: dose: 75.0 mg/kg/injection, schedule: Q01DX001 (ip), vehicle: saline 96 % of control

Clc1ccccc1N=C1NN(c2c3ccccc3nc3ccccc23)Nc2ccccc21
inactive: dose: 100.0 mg/kg/injection, schedule: Q04DX003 (ip), vehicle: acetone 94 % of control | dose: 200.0 mg/kg/injection, schedule: Q04DX003 (ip), vehicle: acetone 90 % of control | dose: 400.0 mg/kg/injection, schedule: Q04DX003 (ip), vehicle: acetone 87 % of control

S=c1nn[nH]n1C1CCCCC1
inactive: dose: 25.0 mg/kg/injection, schedule: Q01DX009 (ip), vehicle: saline with Tween-80 92 % of control | [2] 88 % of control | [3] 90 % of control | [7] 103 % of control | [9] 87 % of control

Nc1ncc(Br)cc1Br
inactive: [3] 94 % of control | [7] 101 % of control | [4] 108 % of control | [8] 95 % of control | dose: 400.0 mg/kg/injection, schedule: Q01DX009 (ip), vehicle: saline with Tween-80 116 % of control | [9] 97 % of control

NNC(=O)CNc1ccccc1F
inactive: dose: 25.0 mg/kg/injection, schedule: Q04DX002 (ip), vehicle: Klucel (hydroxypropylcellulose) (HPC) 113 % of control | dose: 50.0 mg/kg/injection, schedule: Q04DX002 (ip), vehicle: Klucel (hydroxypropylcellulose) (HPC) 102 % of control | [1] 102 % of control and 105 % of control

CCCCCCCCCCCCc1ccc(/C(C)=N/NC(=O)c2ccc[n+](C)c2)cc1
inactive: [10] 93 % of control

COc1ccc(OC)c(/C=C/c2ccc(NC(=O)C(Cl)(Cl)Cl)cc2)c1
inactive: [5] 98 % of control | [6] 93 % of control | dose: 400.0 mg/kg/injection, schedule: Q01DX009 (ip), vehicle: Klucel (hydroxypropylcellulose) (HPC) 102 % of control
